Test results reported in publication PMC7523345 (Investigational new drugs, 2018).

Assay: Phase I dose escalation study: safety, tolerability, DLT and MTD
Type: in vivo

Cc1cccc2c1NC(=O)[C@@H](NC(=O)[C@H](CCC(F)(F)F)[C@H](CCC(F)(F)F)C(N)=O)N=C2c1cccc(F)c1 [BMS-986115]
Fatigue (drug related AE, Grade 3 and 4) (Arm A QD 0.3 mg (N = 2)): 0 n (%)
Fatigue (drug related AE, all grades) (Arm A QD 0.3 mg (N = 2)): 0 n (%)
Flatulence (drug related AE, all grades) (Arm A QD 0.3 mg (N = 2)): 0 n (%)
Hypocalcaemia (drug related AE, Grade 3 and 4) (Arm A QD 0.3 mg (N = 2)): 0 n (%)
Hypocalcaemia (drug related AE, all grades) (Arm A QD 0.3 mg (N = 2)): 0 n (%)
Hypokalaemia (drug related AE, Grade 3 and 4) (Arm A QD 0.3 mg (N = 2)): 0 n (%)
Hypokalaemia (drug related AE, all grades) (Arm A QD 0.3 mg (N = 2)): 0 n (%)
Hyponatraemia (drug related AE, Grade 3 and 4) (Arm A QD 0.3 mg (N = 2)): 0 n (%)
Hyponatraemia (drug related AE, all grades) (Arm A QD 0.3 mg (N = 2)): 0 n (%)
Hypophosphataemia (drug related AE, Grade 3 and 4) (Arm A QD 0.3 mg (N = 2)): 1 (50) n (%)
Hypophosphataemia (drug related AE, all grades) (Arm A QD 0.3 mg (N = 2)): 2 (100) n (%)
Ileus (drug related AE, Grade 3 and 4) (Arm A QD 0.3 mg (N = 2)): 0 n (%)
Increased upper airway secretion (drug related AE, all grades) (Arm A QD 0.3 mg (N = 2)): 0 n (%)
Laryngeal pain (drug related AE, all grades) (Arm A QD 0.3 mg (N = 2)): 0 n (%)
Leucocytosis (drug related AE, Grade 3 and 4) (Arm A QD 0.3 mg (N = 2)): 0 n (%)
Mouth ulceration (drug related AE, all grades) (Arm A QD 0.3 mg (N = 2)): 0 n (%)
Nausea (drug related AE, Grade 3 and 4) (Arm A QD 0.3 mg (N = 2)): 0 n (%)
Nausea (drug related AE, all grades) (Arm A QD 0.3 mg (N = 2)): 0 n (%)
Pruritus (drug related AE, Grade 3 and 4) (Arm A QD 0.3 mg (N = 2)): 0 n (%)
Pruritus (drug related AE, all grades) (Arm A QD 0.3 mg (N = 2)): 1 (50) n (%)
Pulmonary embolism (drug related AE, Grade 3 and 4) (Arm A QD 0.3 mg (N = 2)): 0 n (%)
Rash (drug related AE, all grades) (Arm A QD 0.3 mg (N = 2)): 1 (50) n (%)
Rash maculopapular (drug related AE, all grades) (Arm A QD 0.3 mg (N = 2)): 0 n (%)
Sinusitis (drug related AE, all grades) (Arm A QD 0.3 mg (N = 2)): 1 (50) n (%)
Urticaria (drug related AE, Grade 3 and 4) (Arm A QD 0.3 mg (N = 2)): 0 n (%)
Vision blurred (drug related AE, all grades) (Arm A QD 0.3 mg (N = 2)): 0 n (%)
Vomiting (drug related AE, Grade 3 and 4) (Arm A QD 0.3 mg (N = 2)): 0 n (%)
Vomiting (drug related AE, all grades) (Arm A QD 0.3 mg (N = 2)): 0 n (%)
Weight decreased (drug related AE, all grades) (Arm A QD 0.3 mg (N = 2)): 0 n (%)
No. of patients with DLTs (Arm A QD 0.3 mg, 2 DLT evaluable patients): 0
Abdominal distension (drug related AE, all grades) (Arm A QD 0.6 mg (N = 2)): 0 n (%)
Abdominal pain (drug related AE, Grade 3 and 4) (Arm A QD 0.6 mg (N = 2)): 0 n (%)
Abdominal pain (drug related AE, all grades) (Arm A QD 0.6 mg (N = 2)): 0 n (%)
Blood creatinine increased (drug related AE, all grades) (Arm A QD 0.6 mg (N = 2)): 0 n (%)
Colitis (drug related AE, Grade 3 and 4) (Arm A QD 0.6 mg (N = 2)): 0 n (%)
Cough (drug related AE, Grade 3 and 4) (Arm A QD 0.6 mg (N = 2)): 0 n (%)
Cough (drug related AE, all grades) (Arm A QD 0.6 mg (N = 2)): 0 n (%)
Decreased Appetite (drug related AE, Grade 3 and 4) (Arm A QD 0.6 mg (N = 2)): 0 n (%)
Decreased Appetite (drug related AE, all grades) (Arm A QD 0.6 mg (N = 2)): 0 n (%)
Dehydration (drug related AE, Grade 3 and 4) (Arm A QD 0.6 mg (N = 2)): 0 n (%)
Dehydration (drug related AE, all grades) (Arm A QD 0.6 mg (N = 2)): 0 n (%)
Dermatitis acneiform (drug related AE, all grades) (Arm A QD 0.6 mg (N = 2)): 0 n (%)
Diarrhoea (drug related AE, Grade 3 and 4) (Arm A QD 0.6 mg (N = 2)): 0 n (%)
Diarrhoea (drug related AE, all grades) (Arm A QD 0.6 mg (N = 2)): 1 (50) n (%)
Dry mouth (drug related AE, all grades) (Arm A QD 0.6 mg (N = 2)): 0 n (%)
Dry skin (drug related AE, all grades) (Arm A QD 0.6 mg (N = 2)): 0 n (%)
Dysgeusia (drug related AE, all grades) (Arm A QD 0.6 mg (N = 2)): 0 n (%)
Dyspepsia (drug related AE, all grades) (Arm A QD 0.6 mg (N = 2)): 0 n (%)
Dysphonia (drug related AE, all grades) (Arm A QD 0.6 mg (N = 2)): 0 n (%)
Fatigue (drug related AE, Grade 3 and 4) (Arm A QD 0.6 mg (N = 2)): 0 n (%)
Fatigue (drug related AE, all grades) (Arm A QD 0.6 mg (N = 2)): 0 n (%)
Flatulence (drug related AE, all grades) (Arm A QD 0.6 mg (N = 2)): 0 n (%)
Hypocalcaemia (drug related AE, Grade 3 and 4) (Arm A QD 0.6 mg (N = 2)): 0 n (%)
Hypocalcaemia (drug related AE, all grades) (Arm A QD 0.6 mg (N = 2)): 0 n (%)
Hypokalaemia (drug related AE, Grade 3 and 4) (Arm A QD 0.6 mg (N = 2)): 0 n (%)
Hypokalaemia (drug related AE, all grades) (Arm A QD 0.6 mg (N = 2)): 0 n (%)
Hyponatraemia (drug related AE, Grade 3 and 4) (Arm A QD 0.6 mg (N = 2)): 0 n (%)
Hyponatraemia (drug related AE, all grades) (Arm A QD 0.6 mg (N = 2)): 0 n (%)
Hypophosphataemia (drug related AE, Grade 3 and 4) (Arm A QD 0.6 mg (N = 2)): 0 n (%)
Hypophosphataemia (drug related AE, all grades) (Arm A QD 0.6 mg (N = 2)): 1 (50) n (%)
Ileus (drug related AE, Grade 3 and 4) (Arm A QD 0.6 mg (N = 2)): 0 n (%)
Increased upper airway secretion (drug related AE, all grades) (Arm A QD 0.6 mg (N = 2)): 0 n (%)
Laryngeal pain (drug related AE, all grades) (Arm A QD 0.6 mg (N = 2)): 0 n (%)
Leucocytosis (drug related AE, Grade 3 and 4) (Arm A QD 0.6 mg (N = 2)): 0 n (%)
Mouth ulceration (drug related AE, all grades) (Arm A QD 0.6 mg (N = 2)): 0 n (%)
Nausea (drug related AE, Grade 3 and 4) (Arm A QD 0.6 mg (N = 2)): 0 n (%)
Nausea (drug related AE, all grades) (Arm A QD 0.6 mg (N = 2)): 1 (50) n (%)
Pruritus (drug related AE, Grade 3 and 4) (Arm A QD 0.6 mg (N = 2)): 0 n (%)
Pruritus (drug related AE, all grades) (Arm A QD 0.6 mg (N = 2)): 0 n (%)
Pulmonary embolism (drug related AE, Grade 3 and 4) (Arm A QD 0.6 mg (N = 2)): 0 n (%)
Rash (drug related AE, all grades) (Arm A QD 0.6 mg (N = 2)): 1 (50) n (%)
